≈ marks a conversion by molar mass, not a printed value.
Key:
[1] = Reducing power by the Somogyi-Nelson method; type: physicochemical
Protocol: Thereafter these high-purity saccharide preparations were tested for reducing power with the Somogyi-Nelson method and their reducing powers were represented in terms of DE.

[2] = Acute toxicity in mice upon oral administration; type: in vivo; settings: mouse, in vivo, acute
Protocol: (§1) High-purity maltosyl maltoside, maltotriosyl maltoside and maltotriosyl maltotrioside prepared by the method in Experiment B-1 were tested for acute toxicity in mice upon oral administration.

mice = experiment: Acute toxicity in mice upon oral administration; type: in vivo; settings: for death: maximum administrable dose
Protocol: as §1

[3] = Solubility of crystals in water; type: physicochemical; settings: purity 99.0%, 25° C. water
Protocol: An alpha-D-maltotriosyl alpha-D-maltotrioside (Substance 3), purity of 97% or higher, prepared by the method in Experiment B-1, was decolored, deionized and concentrated to 70% in usual manner and the concentrate was transferred in a beaker and allowed to stand in 4° C. chilled room for 2 months leading to eduction of crystals. The crystals were centrifugally collected and washed with a minimum amount of water, thus obtaining crystals with a purity of 99.0%.
The physicochemical properties of the crystals as tested were as follows:
Relatively high, about 91 g being soluble in 100 ml of 25° C. water.

[4] = Hygroscopicity of crystalline maltotriosyl maltotrioside; type: physicochemical; settings: varies depending on purity

Compound	DE (reducing power) [1]	LD50 [2] [mg/kg]	acute toxicity (mice)	death (mice)	also measured
OC[C@H]1O[C@H](O[C@H]2O[C@H](CO)[C@@H](O[C@H]3O[C@H](CO)[C@@H](O)[C@H](O)[C@H]3O)[C@H](O)[C@H]2O)[C@H](O)[C@@H](O)[C@@H]1O [PI, alpha-glucosyl trehalose]	0.83	–	–	–	–
OC[C@H]1O[C@H](O[C@H]2O[C@H](CO)[C@@H](O[C@H]3O[C@H](CO)[C@@H](O[C@H]4O[C@H](CO)[C@@H](O)[C@H](O)[C@H]4O)[C@H](O)[C@H]3O)[C@H](O)[C@H]2O)[C@H](O)[C@@H](O)[C@@H]1O [PII, alpha-maltosyl trehalose]	0.35	–	–	–	–
OC[C@H]1O[C@H](O[C@H]2O[C@H](CO)[C@@H](O[C@H]3O[C@H](CO)[C@@H](O[C@H]4O[C@H](CO)[C@@H](O[C@H]5O[C@H](CO)[C@@H](O)[C@H](O)[C@H]5O)[C@H](O)[C@H]4O)[C@H](O)[C@H]3O)[C@H](O)[C@H]2O)[C@H](O)[C@@H](O)[C@@H]1O [PIII, alpha-maltotriosyl trehalose]	0.10	–	–	–	–
OC[C@H]1O[C@H](O[C@H]2O[C@H](CO)[C@@H](O[C@H]3O[C@H](CO)[C@@H](O[C@H]4O[C@H](CO)[C@@H](O[C@H]5O[C@H](CO)[C@@H](O[C@H]6O[C@H](CO)[C@@H](O)[C@H](O)[C@H]6O)[C@H](O)[C@H]5O)[C@H](O)[C@H]4O)[C@H](O)[C@H]3O)[C@H](O)[C@H]2O)[C@H](O)[C@@H](O)[C@@H]1O [PIV, alpha-maltotetraosyl trehalose]	0.27	–	–	–	–
OC[C@H]1O[C@H](O[C@H]2O[C@H](CO)[C@@H](O[C@H]3O[C@H](CO)[C@@H](O[C@H]4O[C@H](CO)[C@@H](O[C@H]5O[C@H](CO)[C@@H](O[C@H]6O[C@H](CO)[C@@H](O[C@H]7O[C@H](CO)[C@@H](O)[C@H](O)[C@H]7O)[C@H](O)[C@H]6O)[C@H](O)[C@H]5O)[C@H](O)[C@H]4O)[C@H](O)[C@H]3O)[C@H](O)[C@H]2O)[C@H](O)[C@@H](O)[C@@H]1O [PV, alpha-maltopentaosyl trehalose]	0.23	–	–	–	–
OC[C@H]1O[C@H](O[C@H]2[C@H](O)[C@@H](O)[C@@H](O[C@H]3O[C@H](CO)[C@@H](O[C@H]4O[C@H](CO)[C@@H](O)[C@H](O)[C@H]4O)[C@H](O)[C@H]3O)O[C@@H]2CO)[C@H](O)[C@@H](O)[C@@H]1O [maltosyl maltoside, O-alpha-D-glucopyranosyl-(1→4)-alpha-D-glucopyranosyl alpha-D-maltoside]	–	≥ 50000	low intoxicity	no death was observed	–
OC[C@H]1O[C@H](O[C@H]2[C@H](O)[C@@H](O)[C@@H](O[C@H]3O[C@H](CO)[C@@H](O[C@H]4O[C@H](CO)[C@@H](O[C@H]5O[C@H](CO)[C@@H](O)[C@H](O)[C@H]5O)[C@H](O)[C@H]4O)[C@H](O)[C@H]3O)O[C@@H]2CO)[C@H](O)[C@@H](O)[C@@H]1O [maltotriosyl maltoside, O-alpha-D-glucopyranosyl-(1→4)-O-alpha-D-glucopyranosyl-(1→4)-alpha-D-glucopyranosyl alpha-D-maltoside]	–	≥ 50000	low intoxicity	no death was observed	–
OC[C@H]1O[C@H](O[C@H]2[C@H](O)[C@@H](O)[C@@H](O[C@H]3[C@H](O)[C@@H](O)[C@@H](O[C@H]4O[C@H](CO)[C@@H](O[C@H]5O[C@H](CO)[C@@H](O[C@H]6O[C@H](CO)[C@@H](O)[C@H](O)[C@H]6O)[C@H](O)[C@H]5O)[C@H](O)[C@H]4O)O[C@@H]3CO)O[C@@H]2CO)[C@H](O)[C@@H](O)[C@@H]1O [maltotriosyl maltotrioside, O-alpha-D-glucopyranosyl-(1→4)-O-alpha-D-glucopyranosyl-(1→4)-alpha-D-glucopyranosyl alpha-D-maltotrioside]	–	≥ 50000	low intoxicity	no death was observed	solubility [3]: ~910 mg/mL (≈ 918 mM); hygroscopicity ([4]; listed as crystalline alpha-D-maltotriosyl alpha-D-maltotrioside): very weak hygroscopicity; hygroscopicity ([4]; listed as crystalline maltotriosyl maltotrioside): substantially non-hygroscopic

From patent publication US5780620A, “Non-reducing oligosaccharides and their production and use” (Kabushiki Kaisha Hayashibara Seibutsu Kagaku Kenkyujo, priority 1993, dated 1998)
